Reference: PubChem BioAssay AID250 (DTP/NCI, 2004)
“And” between values parts separate entries of the source, which are not always exact repeats. Identical values can stand only once. Toxic doses and inconclusive results are not listed.

Test system: BDF1 mice, L1210 leukemia sc, survival T/C
Test: NCI In Vivo Anticancer Drug Screen. Data for tumor model L1210 Leukemia (subcutaneous) in B6D2F1 (BDF1) mice
Conditions: higher = longer survival
Method: The antitumor activity of compounds was measured in mice bearing transplantable tumors. Survival or tumor size were measured and the results are expressed as the measurement made in the treated group (T) divided by the measurement made in the vehicle treated control group (C). The tumor model used in this assay is L1210 Leukemia (subcutaneous) in B6D2F1 (BDF1) mice

[1] = endpoint: median survival time, dose: 39.0 mg/kg/injection, schedule: Q01DX Z (sc), vehicle: methylcellulose (MC)
[2] = endpoint: median survival time, dose: 65.0 mg/kg/injection, schedule: Q01DX Z (sc), vehicle: methylcellulose (MC)
[3] = endpoint: median survival time, dose: 108.0 mg/kg/injection, schedule: Q01DX Z (sc), vehicle: methylcellulose (MC)
[4] = endpoint: median survival time, dose: 180.0 mg/kg/injection, schedule: Q01DX Z (sc), vehicle: methylcellulose (MC)
[5] = endpoint: median survival time, dose: 300.0 mg/kg/injection, schedule: Q01DX Z (sc), vehicle: methylcellulose (MC)
[6] = endpoint: median survival time, dose: 39.0 mg/kg/injection, schedule: Q01DX Z (sc), vehicle: saline
[7] = endpoint: median survival time, dose: 65.0 mg/kg/injection, schedule: Q01DX Z (sc), vehicle: saline
[8] = endpoint: median survival time, dose: 108.0 mg/kg/injection, schedule: Q01DX Z (sc), vehicle: saline
[9] = endpoint: median survival time, dose: 180.0 mg/kg/injection, schedule: Q01DX Z (sc), vehicle: saline
[10] = endpoint: median survival time, dose: 300.0 mg/kg/injection, schedule: Q01DX Z (sc), vehicle: saline

In the case of `C[C@]12CCC(=O)C=C1CC[C@H]1[C@@H]3CC[C@](O)(C(=O)CO)[C@@]3(C)C[C@H](O)[C@@]12F`, the T/C [1] is reported as 100 % of control, the T/C [2] is reported as 100 % of control and the T/C [3] is reported as 100 % of control. The T/C [4] was 100 % of control, the T/C [5] was 100 % of control and 118 % of control and the T/C (endpoint: median survival time, dose: 833.0 mg/kg/injection, schedule: Q01DX Z (sc), vehicle: methylcellulose (MC)) was 112 % of control.
`CC[C@@]1(O)C(=O)OCc2c1cc1n(c2=O)Cc2cc3ccccc3nc2-1` was tested, and the T/C (endpoint: median survival time, dose: 0.65 mg/kg/injection, schedule: Q01DX Z (sc), vehicle: carboxymethylcellulose (CMC)) was 100 % of control, the T/C (endpoint: median survival time, dose: 1.08 mg/kg/injection, schedule: Q01DX Z (sc), vehicle: carboxymethylcellulose (CMC)) was 100 % of control and the T/C (endpoint: median survival time, dose: 1.8 mg/kg/injection, schedule: Q01DX Z (sc), vehicle: carboxymethylcellulose (CMC)) was 122 % of control. For the same compound, the T/C (endpoint: median survival time, dose: 3.0 mg/kg/injection, schedule: Q01DX Z (sc), vehicle: carboxymethylcellulose (CMC)) was 118 % of control.
For `O=C(Nc1ccc(NC(=O)Nc2cccc(C3=NCCN3)c2)cc1)Nc1cccc(C2=NCCN2)c1`, the T/C (endpoint: median survival time, dose: 23.0 mg/kg/injection, schedule: Q01DX Z (sc), vehicle: saline) was 100 % of control, the T/C [6] was 110 % of control and the T/C [7] was 100 % of control. The T/C [8] was 95 % of control, the T/C [9] was 100 % of control and the T/C [10] was 100 % of control.
For `N=C(N)SCc1c2ccccc2c(CSC(=N)N)c2ccccc12`, the T/C (endpoint: median survival time, dose: 25.0 mg/kg/injection, schedule: Q01DX009 (ip), vehicle: steriod suspending solution) was 110 % of control, the T/C (endpoint: median survival time, dose: 50.0 mg/kg/injection, schedule: Q01DX009 (ip), vehicle: steriod suspending solution) was 110 % of control and the T/C (endpoint: median survival time, dose: 50.0 mg/kg/injection, schedule: Q01DX009 (sc), vehicle: steriod suspending solution) was 120 % of control. The T/C (endpoint: median survival time, dose: 50.0 mg/kg/injection, schedule: Q04DX003 (ip), vehicle: steriod suspending solution) was 100 % of control, the T/C (endpoint: median survival time, dose: 62.5 mg/kg/injection, schedule: Q01DX001 (ip), vehicle: steriod suspending solution) was 100 % of control and the T/C (endpoint: median survival time, dose: 100.0 mg/kg/injection, schedule: Q04DX003 (ip), vehicle: steriod suspending solution) was 110 % of control. For the same compound, the T/C (endpoint: median survival time, dose: 100.0 mg/kg/injection, schedule: Q04DX003 (sc), vehicle: steriod suspending solution) was 100 % of control, the T/C (endpoint: median survival time, dose: 125.0 mg/kg/injection, schedule: Q01DX001 (ip), vehicle: steriod suspending solution) was 110 % of control and the T/C (endpoint: median survival time, dose: 125.0 mg/kg/injection, schedule: Q01DX001 (sc), vehicle: steriod suspending solution) was 110 % of control. For the same compound, the T/C (endpoint: median survival time, dose: 200.0 mg/kg/injection, schedule: Q01DX009 (sc), vehicle: steriod suspending solution) was 120 % of control, the T/C (endpoint: median survival time, dose: 200.0 mg/kg/injection, schedule: Q04DX003 (sc), vehicle: steriod suspending solution) was 105 % of control and the T/C (endpoint: median survival time, dose: 250.0 mg/kg/injection, schedule: Q01DX001 (ip), vehicle: steriod suspending solution) was 110 % of control. The T/C (endpoint: median survival time, dose: 400.0 mg/kg/injection, schedule: Q01DX009 (sc), vehicle: steriod suspending solution) was 110 % of control, the T/C (endpoint: median survival time, dose: 400.0 mg/kg/injection, schedule: Q04DX003 (sc), vehicle: steriod suspending solution) was 110 % of control and the T/C (endpoint: median survival time, dose: 500.0 mg/kg/injection, schedule: Q01DX001 (sc), vehicle: steriod suspending solution) was 105 % of control. For the same compound, the T/C (endpoint: median survival time, dose: 800.0 mg/kg/injection, schedule: Q01DX009 (sc), vehicle: steriod suspending solution) was 110 % of control, the T/C (endpoint: median survival time, dose: 800.0 mg/kg/injection, schedule: Q04DX003 (sc), vehicle: steriod suspending solution) was 100 % of control and the T/C (endpoint: median survival time, dose: 1000.0 mg/kg/injection, schedule: Q01DX001 (sc), vehicle: steriod suspending solution) was 110 % of control. The T/C (endpoint: median survival time, dose: 2000.0 mg/kg/injection, schedule: Q01DX001 (sc), vehicle: steriod suspending solution) was 100 % of control.
For `CC(C)CSc1nc(N)nc2nc[nH]c12`, the T/C (endpoint: median survival time, dose: 14.0 mg/kg/injection, schedule: Q01DX Z (sc), vehicle: methylcellulose (MC)) was 100 % of control, the T/C (endpoint: median survival time, dose: 23.0 mg/kg/injection, schedule: Q01DX Z (sc), vehicle: methylcellulose (MC)) was 105 % of control and the T/C [1] was 111 % of control. The T/C [2] was 111 % of control, the T/C [3] was 111 % of control and the T/C [4] was 116 % of control. The T/C [5] was 111 % of control.
With `CC(=O)Nc1ccc2c(Nc3ccc(NS(C)(=O)=O)cc3)c3ccccc3nc2c1` the T/C (endpoint: mean survival time, dose: 1.5 mg/kg/injection, schedule: Q01DX009 (sc), vehicle: saline) was 114 % of control, the T/C (endpoint: mean survival time, dose: 3.0 mg/kg/injection, schedule: Q01DX009 (sc), vehicle: saline) was 111 % of control and the T/C (endpoint: mean survival time, dose: 6.25 mg/kg/injection, schedule: Q01DX009 (sc), vehicle: saline) was 121 % of control. The T/C (endpoint: mean survival time, dose: 12.5 mg/kg/injection, schedule: Q01DX009 (sc), vehicle: saline) was 182 % of control.
For `Nc1ccc(OC(=O)Oc2ccc(N)cc2)cc1`, the T/C (endpoint: median survival time, dose: 180.0 mg/kg/injection, schedule: Q01DX Z (sc), vehicle: carboxymethylcellulose (CMC)) was 111 % of control and the T/C (endpoint: median survival time, dose: 833.0 mg/kg/injection, schedule: Q01DX Z (sc), vehicle: carboxymethylcellulose (CMC)) was 100 % of control.
`COc1ccc2[nH]c3c(C)c4ccncc4c(C)c3c2c1` was tested, and the T/C [6] was 100 % of control, the T/C [7] was 100 % of control and the T/C [8] was 112 % of control. For the same compound, the T/C [9] was 116 % of control and the T/C [10] was 116 % of control.
In the case of `C[n+]1ccc(Nc2ccc(NC(=O)c3ccc(Nc4cc[n+](C)c5ccc(N)cc45)cc3N)cc2)cc1`, the T/C (endpoint: median survival time, dose: 0.5 mg/kg/injection, schedule: Q03HX024 (ip), vehicle: water) is reported as 111 % of control, the T/C (endpoint: median survival time, dose: 1.0 mg/kg/injection, schedule: Q01DX009 (ip), vehicle: water) is reported as 116 % of control and the T/C (endpoint: median survival time, dose: 2.0 mg/kg/injection, schedule: Q01DX009 (ip), vehicle: water) is reported as 155 % of control. For the same compound, the T/C (endpoint: median survival time, dose: 2.0 mg/kg/injection, schedule: Q01DX009 (sc), vehicle: water) was 110 % of control, the T/C (endpoint: median survival time, dose: 2.0 mg/kg/injection, schedule: Q03HX024 (ip), vehicle: water) was 183 % of control and the T/C (endpoint: median survival time, dose: 4.0 mg/kg/injection, schedule: Q01DX009 (ip), vehicle: water) was 233 % of control. The T/C (endpoint: median survival time, dose: 4.0 mg/kg/injection, schedule: Q01DX009 (sc), vehicle: water) was 170 % of control, the T/C (endpoint: median survival time, dose: 4.0 mg/kg/injection, schedule: Q03HX008 (sc), vehicle: water) was 120 % of control and the T/C (endpoint: median survival time, dose: 4.0 mg/kg/injection, schedule: Q03HX024 (ip), vehicle: water) was 288 % of control. For the same compound, the T/C (endpoint: median survival time, dose: 4.0 mg/kg/injection, schedule: Q03HX024 (sc), vehicle: water) was 165 % of control, the T/C (endpoint: median survival time, dose: 8.0 mg/kg/injection, schedule: Q01DX009 (ip), vehicle: water) was 194 % of control and the T/C (endpoint: median survival time, dose: 8.0 mg/kg/injection, schedule: Q01DX009 (sc), vehicle: water) was 225 % of control. The T/C (endpoint: median survival time, dose: 8.0 mg/kg/injection, schedule: Q03HX024 (ip), vehicle: water) was 188 % of control, the T/C (endpoint: median survival time, dose: 8.0 mg/kg/injection, schedule: Q03HX024 (sc), vehicle: water) was 220 % of control and the T/C (endpoint: median survival time, dose: 8.0 mg/kg/injection, schedule: Q04DX003 (sc), vehicle: water) was 100 % of control. For the same compound, the T/C (endpoint: median survival time, dose: 16.0 mg/kg/injection, schedule: Q01DX001 (sc), vehicle: water) was 110 % of control, the T/C (endpoint: median survival time, dose: 16.0 mg/kg/injection, schedule: Q01DX009 (ip), vehicle: water) was 177 % of control and the T/C (endpoint: median survival time, dose: 16.0 mg/kg/injection, schedule: Q01DX009 (sc), vehicle: water) was 270 % of control. The T/C (endpoint: median survival time, dose: 16.0 mg/kg/injection, schedule: Q03HX008 (sc), vehicle: water) was 235 % of control, the T/C (endpoint: median survival time, dose: 16.0 mg/kg/injection, schedule: Q03HX024 (sc), vehicle: water) was 155 % of control and the T/C (endpoint: median survival time, dose: 32.0 mg/kg/injection, schedule: Q01DX009 (sc), vehicle: water) was 180 % of control. For the same compound, the T/C (endpoint: median survival time, dose: 32.0 mg/kg/injection, schedule: Q03HX008 (sc), vehicle: water) was 210 % of control, the T/C (endpoint: median survival time, dose: 32.0 mg/kg/injection, schedule: Q03HX024 (sc), vehicle: water) was 100 % of control and the T/C (endpoint: median survival time, dose: 32.0 mg/kg/injection, schedule: Q04DX003 (sc), vehicle: water) was 205 % of control. The T/C (endpoint: median survival time, dose: 64.0 mg/kg/injection, schedule: Q01DX001 (sc), vehicle: water) was 215 % of control, the T/C (endpoint: median survival time, dose: 64.0 mg/kg/injection, schedule: Q04DX003 (sc), vehicle: water) was 260 % of control and the T/C (endpoint: median survival time, dose: 128.0 mg/kg/injection, schedule: Q01DX001 (sc), vehicle: water) was 240 % of control. For the same compound, the T/C (endpoint: median survival time, dose: 128.0 mg/kg/injection, schedule: Q04DX003 (sc), vehicle: water) was 245 % of control.
With `CN(C)c1nc(N(C)C)nc(N(C)C)n1` the T/C [6] was 100 % of control, the T/C [7] was 100 % of control and the T/C [8] was 100 % of control. The T/C [9] was 100 % of control, the T/C [10] was 95 % of control and 105 % of control and the T/C (endpoint: median survival time, dose: 500.0 mg/kg/injection, schedule: Q01DX Z (sc), vehicle: saline) was 95 % of control. The T/C (endpoint: median survival time, dose: 833.0 mg/kg/injection, schedule: Q01DX Z (sc), vehicle: saline) was 110 % of control and the T/C (endpoint: median survival time, dose: 1388.0 mg/kg/injection, schedule: Q01DX Z (sc), vehicle: saline) was 100 % of control.
